Experimental findings from patent US12077503B2, “Substituted cyclic amides and their use as herbicides” (FMC CORPORATION, priority 2015, dated 2024) are described below.

The assay has as its system green foxtail (Setaria viridis). Briefly: Test A preemergence. Type of assay: in vivo. As to conditions: for Foxtail, Green plant response rating: 31 g ai/ha, 0 to 100 scale where 0 is no effect and 100 is complete control; for Plant response rating, Foxtail, Green: 125 g ai/ha, 0 to 100 scale (0 no effect, 100 complete control). Summed up: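 Seeded soil received test chemicals as a preemergence directed spray, and seedlings at one to two leaves, 2–10 cm tall, received them postemergence, in a non-phytotoxic, surfactant-containing solvent mixture. Pots were held in a greenhouse for approximately 10 d, then rated for injury from 0, no effect, to 100, complete control.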

Regarding `CN1C[C@H](c2csc3c2CCC(F)(F)C3)[C@@H](C(=O)Nc2ccc(F)c(F)c2F)C1=O` (racemic) [Compound 1368], the “Foxtail, Green plant response rating” value worked out at 0 and the “Plant response rating, Foxtail, Green” value came out at 100.
In the case of `CN1C[C@H](c2csc3c2CCC(F)(F)C3)[C@@H](C(=O)Nc2cccc(F)c2F)C1=O` (racemic) [Compound 1369], the “Foxtail, Green plant response rating” value was determined as 20 and the “Plant response rating, Foxtail, Green” value is reported as 100.
